What all share (assay type): cell-based
The subject of experiment [1] is mouse hepatocytes in primary culture. The experiment can be described thus: Apoptosis induced by actinomycin D and Jo2 antibody in mouse hepatocytes in primary culture. As to conditions: AR 20 nM; PD153035 1 μM, PD98059 10 μM, LY-294002 20 μM; actinomycin D and Jo2. An excerpt:
In order to determine whether the in vivo antiapoptotic effects of AR could be mediated by direct action of AR on liver parenchymal cells, the inventors used mouse hepatocytes in primary culture. It has been reported that hepatocytes exposed to Jo-2 antibodies undergo apoptosis effectively in presence of actinomycin D [(5), (6), (33) Ni, R., Tomita, Y., Matsuda, K., Ichiara, A., Ishimura, K., Ogasawara, J., Nagata, S. 1994. Fas-mediated apoptosis in primary cultured mouse hepatocytes. Exp. Cell Res. 215: 332-337]. Hepatocytes were pretreated with different concentrations of AR during […] before addition of actinomycin D and Jo2 antibody. Measurements of apoptosis and related molecular events, were made 18 h later. […] Likewise, they found antiapoptotic protein Bcl-xL to be induced by treatment with AR in mouse hepatocytes treated with Jo2 (FIG. 4B). In order to identify the AR antiapoptotic signaling mechanisms, PI-3K/Akt and ERK1/2 pathways were studied, as they are general mediators of cell survival [(4), (6)]. […] A key signaling molecule implicated in protection against liver damage induced by Fas is STAT3 [(34) Shen, Y., Devgan, G., Darnell, J. E., Bromberg, J. F. 2001. Constitutively activated Stat3 protects fibroblasts from serum withdrawal and UV-induced apoptosis and antagonizes the proapoptotic effects of activated Statl. Proc. Natl. Acad. Sci. USA. 98: 1543-1548. (35) Haga, S., Terui, K., Zhang, H. Q., Enosawa, S., Ogawa, W., Inoue, H., Okuyama, T., Takeda, K., Akira, S., Ogino, T., et al. 2003. Stat3 protects against Fas-induced liver injury by redox-dependent and -independent mechanisms. J. Clin. Invest. 112: 989-998].
(§1) Hepatocytes were isolated from male Wistar rats (150 g) and C57/BL6 mice (20 g) by perfusion with collagenase (Gibco-BRL, Paisley, UK) as described elsewhere [(18), (20)]. Cells (5×10^5 cells per well) were plated onto 6-well plates coated with collagen (type I collagen, Collaborative Biomedical, Bedford, Mass., USA). Cultures were maintained in MEM medium supplemented with 10% fetal calf serum (FCS), non-essential amino acids, glutamine 2 mM and antibiotics (all supplied by Gibco-BRL). After 2 h of incubation, the medium was removed and cells were again cultured in the same medium with 5% FCS. Where applicable, hepatocytes were treated with IL-1β or TNFα from Roche (Mannheim, Germany), HGF or forskolin from Calbiochem (San Diego, Calif., USA), IL6 from RD Systems (Wiesbaden-Nordenstadt, Germany), or PGE2 from Alexis QBiogene (Carlsbad, Calif., USA).
Apoptosis was induced in cultured mouse hepatocytes by treatment with 0.5 μg/ml of Jo2 antibody and 0.05 μg/ml of actinomycin D as described elsewhere (5). Where applicable, the hepatocytes were treated with AR 6 h before the addition of Jo2 antibody and actinomycin D. Apoptosis was estimated by determining soluble histone-DNA complexes using the Cell Death Detection Assay (Roche). ELISA tests for determining cell death were carried out following the manufacturer's instructions. The specific enrichment of mono- and oligonucleosomes released in the cytoplasm (enrichment factor, EF) was calculated as the ratio between the absorbance values of the samples corresponding to treated cells and control cells. […]
Caspase-3 activity in mouse hepatocytes and liver tissue lysates was assessed using the Caspase-3/CPP32 colorimetric assay kit (BioVision, Palo Alto, Calif., USA). […]

The test system of another experiment is rat hepatocytes. The experiment can be described thus: DNA synthesis ([3H]thymidine incorporation) in cultured rat hepatocytes. As to conditions: for reduction of the effects of AR on DNA synthesis: AR 100 nM, PD98059 10 μM, SP600125 20 μM; for effect on DNA synthesis stimulated by AR (in words): AR 100 nM with PD153035 1 μM, LY294002 20 μM, SB202190 25 μM, TGFβ 8 ng/ml. As to the method: For DNA synthesis, rat hepatocytes were plated to a density of 3×10^4 cells/well in 96-well plates coated with collagen in MEM medium supplemented with 10% FCS. Five hours after plating, the medium was changed and cells were maintained in absence of serum for another 20 hours. DNA synthesis was assayed after 30 h of treatment with AR. A pulse of [^3H]thymidine was administered (1 μCi/well)(Amersham Biosciences, Piscataway, N.J., USA) 22 h after the addition of AR. Cells were harvested, and the incorporation of thymidine was determined with a scintillation counter. Evaluations were made of the effect of AR on DNA synthesis in the presence of MEK1 inhibitor, PD98059, PI-3K inhibitor, LY294002, p38 MAPK inhibitor, SB202190, JNK inhibitor, SP600125, and of the EGF-R tyrosine kinase activity inhibitor, PD153035—all supplied by Calbiochem.
A general note: Dividing cells build labelled thymidine or BrdU into new DNA.

The subject of experiment [2] is AR gene expression in rat hepatocytes. The experiment in a line: AR gene expression in cultured rat hepatocytes (real time PCR). To be noted: IL-1β 2 ng/ml; PGE2 10 μM; forskolin, hydrogen peroxide, menadione data not shown. As to the method:
as §1
Total RNA was extracted using TRI reagent (Sigma). […] of RNA were treated with DNase I (Gibco-BRL) before reverse transcription, for which M-MLV enzyme was used (Gibco-BRL) in the presence of RNase OUT (Gibco-BRL). For each PCR reaction 1/10 of each preparation of cDNA was used. PCR products were subjected to electrophoresis in 2% agarose gels, followed by staining with ethidium bromide and quantification using Molecular Analyst software (Bio-Rad, Hercules, Calif., USA). Data were normalized with respect to β-actin gene expression levels. […] All primers were designed to distinguish between the amplification of genomic DNA and cDNA, and all products were sequenced to confirm specificity. The primers used are described below in Table I: […]
Real time PCR was performed using an iCycler (BioRad) and iQ SYBR Green Supermix (Bio-Rad). In order to monitor the specificity of final PCR products, the latter were analysed by fusion curves and electrophoresis. The amount of each transcript was expressed as n-fold the difference versus expression of the reference gene (β-actin)(2^ΔCt, where ΔCt represents the difference in threshold cycle between target genes and control gene).
For orientation: Quantitative PCR measures a nucleic acid by following its amplification.

In the case of `COc1cccc(-c2cc(=O)c3ccccc3o2)c1N` [PD98059, reference compound], the “effect of inhibitor on the protection against apoptosis afforded by AR” value in experiment [1] is listed as “did not interfere”. For the same molecule, the “reduction of the effects of AR on DNA synthesis” value in the experiment on rat hepatocytes was 70%.
On to `COc1cc2ncnc(Nc3cccc(Br)c3)c2cc1OC` [PD153035, reference compound], for which, in experiment [1], the “effect of inhibitor on the protection against apoptosis afforded by AR” value is given as “protection afforded by AR was lost”. Moreover, in the experiment on rat hepatocytes, the “effect on DNA synthesis stimulated by AR (in words)” value (shortened to “effect on DNA synthesis stimulated”) was “completely prevents”.
Regarding `CCCCC[C@H](O)/C=C/[C@H]1[C@H](O)CC(=O)[C@@H]1C/C=C\CCCC(=O)O` [PGE2, prostaglandin E2], the AR gene expression entry in experiment [2] is “rapid induction”.
With `Oc1ccc(-c2nc(-c3ccncc3)c(-c3ccc(F)cc3)[nH]2)cc1` [SB202190], in the experiment with rat hepatocytes, the “effect on DNA synthesis stimulated” value is “no significant effect”.
For the molecule `Oc1c2ccccc2c2c3c(cccc13)N=N2` [SP600125], in the experiment on rat hepatocytes, the “reduction of the effects of AR on DNA synthesis” value was determined as 70%.
With `OO` [hydrogen peroxide], the AR gene expression result in experiment [2] is recorded as “no effect”.
The same measure, in the same setting: the entry for `CC1=CC(=O)c2ccccc2C1=O` [menadione] is “no effect”.
With “IL-1β: cytokine implicated in liver inflammatory and regenerative processes (Roche)”, in experiment [2], the AR gene expression entry is given as “stimulate AR gene expression”.
transforming growth factor β [TGFβ]: the “effect on DNA synthesis stimulated” value with rat hepatocytes is listed as “abrogated”.

Source of the values: patent US20080064629A1, “Amphiregulin as a Protective Agent in Acute Hepatic Injury” (priority 2004, published 2008).
